Measurements: article PMC10927554, “An improved pathway for autonomous bioluminescence imaging in eukaryotes” (Nature Methods, 2024)

Biological target: T1, nnLuz (Neonothopanus nambi, UniProt A0A3G9JYH7, I3S/N4T/F11L/I63T/T99P/T192S/A199P)
T1 construct: gene luz; HiBiT-tag fusion, expressed in yeast Pichia pastoris GS115, clarified lysate; codon-optimized synthetic gene
Test: luminescence, Michaelis-Menten fit, HiBiT-normalized
Format: biochemical
Details: yeast lysate; 0.2 M sodium phosphate, 0.5 M Na2SO4, pH 8; Fln 0.0244-50 uM; DDM, thioglycolic acid; variant nnLuz_v4

T1 sequence (A0A3G9JYH7 whole entry I3S/N4T/F11L/I63T/T99P/T192S/A199P, the tested form may be a part): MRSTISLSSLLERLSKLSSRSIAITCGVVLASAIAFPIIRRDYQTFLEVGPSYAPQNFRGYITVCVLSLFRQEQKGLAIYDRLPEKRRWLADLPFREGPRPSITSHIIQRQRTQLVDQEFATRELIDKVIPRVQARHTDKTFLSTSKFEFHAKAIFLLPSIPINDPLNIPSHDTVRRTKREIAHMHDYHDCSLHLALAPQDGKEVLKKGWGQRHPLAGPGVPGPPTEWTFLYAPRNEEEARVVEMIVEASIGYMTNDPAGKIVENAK

O=c1oc(/C=C/c2ccc(O)c(O)c2)cc(O)c1O [Fln, fungal luciferin]
KM: Yeast strains expressing nnLuz_wt/v4–HiBIT fusions were inoculated into YPD medium
